pEC50: −log10 of the molar value. One block for each compound: values may come before it.
How the values were obtained:
Solubility observations = assay type: physicochemical; settings: in the vehicle (DMSO) or under the assay conditions
hCB2R = hCB2R (Homo sapiens, UniProt P34972); test: hCB2R cAMP assay; assay type: cell-based; settings: for agonist activity at the CB2R (in words): CHO cell cAMP assay
panel of GPCRs = test: GPCR off-target screen, whole panel; assay type: binding; settings: 1 μM; selection of 24 GPCRs (Table S3)
panel of kinases = test: Kinase off-target screen, whole panel; assay type: binding; settings: 10 μM; 97 kinases (Table S4)
Mouse liver microsome = assay type: in vitro ADME; settings: mouse liver microsomes, 37 °C, with NADPH

Chain of hCB2R (P34972 whole entry): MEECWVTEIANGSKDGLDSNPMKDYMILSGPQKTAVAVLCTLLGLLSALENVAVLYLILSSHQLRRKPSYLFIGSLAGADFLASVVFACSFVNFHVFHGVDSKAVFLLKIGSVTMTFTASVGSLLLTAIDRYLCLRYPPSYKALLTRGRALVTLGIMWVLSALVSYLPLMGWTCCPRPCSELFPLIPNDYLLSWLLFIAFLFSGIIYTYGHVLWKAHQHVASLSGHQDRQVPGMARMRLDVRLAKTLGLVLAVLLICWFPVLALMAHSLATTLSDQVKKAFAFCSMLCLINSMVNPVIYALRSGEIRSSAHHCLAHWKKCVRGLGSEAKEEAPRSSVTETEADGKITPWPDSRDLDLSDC

Structure (SMILES): CN(C)c1ccc(C(=O)n2c3ccccc3c3nnc(SCc4ccccc4C#N)nc32)cc1 [Compound 78]
solubility (in words) (Solubility observations): extremely poorly soluble under the assay conditions

agonist activity at the CB2R (in words) (hCB2R): no detectable agonist activity
Structure (SMILES): Sc1nnc2c(n1)[nH]c1ccccc12 [Compound 9, 5H-[1,2,4]Triazino[5,6-b]indole-3-thiol]

pEC50 (hCB2R): 6.92 | binding at any of the GPCRs tested (panel of GPCRs): no significant binding | binding with any of the kinases tested (panel of kinases): no significant binding
Structure (SMILES): N#Cc1ccccc1CSc1nnc2c(n1)[nH]c1ccccc12 [Compound 7, 3-((2′-Cyanobenzyl)thio)-5H-[1,2,4]triazino[5,6-b]indole]

Structure (SMILES): N#Cc1ccccc1CSc1nnc2c3ccccc3n(C(=O)c3ccccc3)c2n1 [Compound 72]
MLM stability t1/2 (Mouse liver microsome): no parent compound could be detected at the earliest time point

Structure (SMILES): Fc1ccccc1CSc1nnc2c(n1)[nH]c1ccccc12 [Compound 14, 3-((2′-Fluorobenzyl)thio)-5H-[1,2,4]triazino[5,6-b]indole]
agonist activity at the CB2R (in words) (hCB2R): no activity up to the highest concentrations tested

agonist activity at the CB2R (in words) (hCB2R): no detectable activity
Structure (SMILES): CC(=O)n1c2ccccc2c2nnc(SCc3ccccc3C#N)nc21 [Compound 66, 2′(((5-Acetyl-5H-[1,2,4]triazino[5,6-b]indol-3-yl)thio)methyl)benzonitrile]

From paper PMC4346271 (Bioorganic & Medicinal Chemistry, 2015)
